How the values were obtained:
[1] = biological target: Mu-type opioid receptor (Cavia porcellus, UniProt P97266); assay: Displacement of radiolabeled DAMGO from mu opioid receptor in Hartley guinea pig brain
[2] = biological target: Kappa-type opioid receptor (Cavia porcellus, UniProt P41144); assay: Displacement of radiolabeled U69593 from kappa1 opioid receptor in Hartley guinea pig brain
[3] = Plasma half life in rat; assay type: ADME, organism-based

Chain of Kappa-type opioid receptor (P41144 whole entry): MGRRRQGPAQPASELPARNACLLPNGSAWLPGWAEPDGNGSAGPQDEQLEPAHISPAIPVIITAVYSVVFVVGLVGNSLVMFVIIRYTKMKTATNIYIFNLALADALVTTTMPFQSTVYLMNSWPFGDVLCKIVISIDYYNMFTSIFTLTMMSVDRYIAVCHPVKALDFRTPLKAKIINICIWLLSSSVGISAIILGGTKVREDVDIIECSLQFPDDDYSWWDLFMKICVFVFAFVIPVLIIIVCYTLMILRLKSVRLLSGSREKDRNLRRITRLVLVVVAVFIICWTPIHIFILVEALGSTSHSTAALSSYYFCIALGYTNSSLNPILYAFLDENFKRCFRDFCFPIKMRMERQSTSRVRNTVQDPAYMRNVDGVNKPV
Chain of Mu-type opioid receptor (P97266 whole entry): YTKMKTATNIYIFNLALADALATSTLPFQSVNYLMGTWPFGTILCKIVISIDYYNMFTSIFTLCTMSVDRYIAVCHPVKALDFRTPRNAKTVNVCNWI

Row | Structure (SMILES) | Ki [1] | Ki [2] | half-life [3]
1 | CN1CC[C@]23c4c5ccc(O)c4O[C@H]2[C@@H](OS(=O)(=O)O)CC[C@H]3[C@H]1C5 | 1.5 nM | 3130 nM | –
2 | CC(C)C(=O)Oc1ccc2c3c1O[C@H]1[C@@H](OS(=O)(=O)O)C=C[C@H]4[C@@H](C2)N(C)CC[C@@]341 | 19.8 nM | – | –
3 | CC1(C)SSC(C)(C)[C@@H](NC(=O)[C@@H](N)Cc2ccc(O)cc2)C(=O)NCC(=O)N[C@@H](Cc2ccc(Cl)cc2)C(=O)N[C@H]1C(=O)O | – | > 10000 nM | –
4 | C[N+]1(C)CC[C@]23c4c5ccc(OC(=O)c6ccccc6)c4O[C@H]2[C@@H](OS(=O)(=O)[O-])C=C[C@H]3[C@H]1C5 | 444 nM | > 10000 nM | –
5 | CC(=O)Oc1ccc2c3c1O[C@H]1[C@@H](OS(=O)(=O)O)C=C[C@H]4[C@@H](C2)N(C)CC[C@@]341 | 0.8 nM | – | > 1 h
6 | CN1CC[C@]23c4c5ccc(OC(=O)c6ccccc6)c4O[C@H]2[C@@H](OS(=O)(=O)O)C=C[C@H]3[C@H]1C5 | 36.9 nM | > 10000 nM | –
7 | CN1CC[C@]23c4c5ccc(OC(=O)C(C)(C)C)c4O[C@H]2[C@@H](OS(=O)(=O)O)C=C[C@H]3[C@H]1C5 | 0.7 nM | – | –
8 | CN1CC[C@]23c4c5ccc(O)c4O[C@H]2[C@@H](OS(=O)(=O)O)C=C[C@H]3[C@H]1C5 | 0.9 nM | – | –
9 | C=CCN1CCC23c4c5ccc(O)c4O[C@@H]2/C(=N/NC(=O)c2ccccc2)CCC3(O)C1C5 (some centres undefined) | 0.2 nM | 0.4 nM | –
10 | CC(=O)Oc1ccc2c3c1O[C@H]1[C@@H](OS(=O)(=O)[O-])C=C[C@H]4[C@@H](C2)[N+](C)(C)CC[C@@]341 | 34.2 nM | > 10000 nM | > 1 h
11 | CC(=O)Oc1ccc2c3c1O[C@H]1[C@@H](OS(=O)(=O)O)CC[C@H]4[C@@H](C2)N(C)CC[C@@]341 | 13.7 nM | > 10000 nM | > 1 h
12 | CN1CC[C@]23c4c5ccc(OC(=O)c6ccccc6)c4O[C@H]2[C@@H](OS(=O)(=O)O)CC[C@H]3[C@H]1C5 | 61.8 nM | > 10000 nM | –
13 | COc1ccc2c3c1O[C@H]1[C@@H](OS(=O)(=O)O)C=C[C@H]4[C@@H](C2)N(C)CC[C@@]341 | 38.7 nM | > 10000 nM | –
14 | CCC(=O)Oc1ccc2c3c1O[C@H]1[C@@H](OS(=O)(=O)O)C=C[C@H]4[C@@H](C2)N(C)CC[C@@]341 | 0.6 nM | – | –
15 | CN1CC[C@]23c4c5ccc(OS(=O)(=O)O)c4O[C@H]2[C@@H](O)C=C[C@H]3[C@H]1C5 | 101 nM | > 10000 nM | –
16 | COc1ccc2c3c1O[C@H]1[C@@H](OS(=O)(=O)O)CC[C@H]4[C@@H](C2)N(C)CC[C@@]341 | 196 nM | > 10000 nM | –
